Assay [1] has as its target T1, human His-PIM1 [2-313] (Homo sapiens, UniProt P11309).
T1 construct: purified human His-PIM1 [2-313] enzyme; His (N); purchased University of Dundee, Scotland; host or cells: baculovirus system
Briefly: PIM1 in-vitro mobility shift assay (Caliper LC3000, FL-Ahx-Bad phosphorylation). The assay is classed as biochemical. To be noted: 1.5 h; percent inhibition at 0.3 uM compound; read-out: PIM1 % I at 0.3 uM. An excerpt:
PIM1 In-Vitro Mobility Shift Assay
One may determine the activity of purified human His-PIM1 [2-313] enzyme in-vitro using a mobility shift assay on a Caliper LC3000 reader (Caliper, Mass.), which measures fluorescence of a phosphorylated and unphosphorylated FL-Ahx-Bad (FITC-(AHX)RSRHSSYPAGT-COOH, Primm 200606-00289, Primm Biotech, Mass.) and calculates a ratiometric value to determine percent turnover. One may express PIM1 (University of Dundee, Scotland) in baculovirus system with a typical yield of >85% purity.
(§1) One determines phosphorylation of the FL-Ahx-Bad in the presence and absence of the compound of interest. One preincubates 5 µl of Enzyme/Substrate/adenosine triphosphate (ATP) mix consisting of 2.4 nM PIM1, 3.6 uM FL-Ahx-Bad, and 240 uM ATP in 1.2× buffer with 2 ul of compound for 20 minutes at 25° C. One initiates reactions with 5 ul of Metal mix consisting of 24 mM MgCl2 in 1.2× buffer and incubated at 25° C. for 90 minutes and stops the reactions by addition of 5 ul of Stop mix consisting of 100 mM HEPES, 121 mM ethylenediamine tetraacetic acid, 0.8% Coatin Reagent 3 (Caliper, Mass.), and 0.01% Tween. One detects phosphorylated and unphosphorylated substrate by a Caliper LC3000 reader (Caliper, Mass.) in the presence of separation buffer consisting of 100 mM HEPES, 16 mM ethylenediamine tetraacetic acid, 0.1% Coatin Reagent 3 (Caliper, Mass.), 0.015% Brij-35, 5% DMSO, and 5.6 mM MgCl2. One may use the following separation conditions for a Caliper LC3000: −1.0 PSI, −2000 V upstream voltage, −400 V downstream voltage, 0.2 second sample sip, 45 second post sip, 10% laser strength.
The table 1 below provides the percent inhibition of PIM1 at 0.3 micromolar for Examples provided herein. Several examples were tested more than once. Variations in the experimental outcomes, negative values, or values over 100% inhibition are presumably due to experimental error inherent in the assay.

Assay [2] deals with T2, human His-PIM2 [23-299] (Homo sapiens, UniProt Q9P1W9).
T2 construct: purified human His-PIM2 [23-299] enzyme; His (N); host or cells: E. coli
T2 sequence (Q9P1W9 23-299): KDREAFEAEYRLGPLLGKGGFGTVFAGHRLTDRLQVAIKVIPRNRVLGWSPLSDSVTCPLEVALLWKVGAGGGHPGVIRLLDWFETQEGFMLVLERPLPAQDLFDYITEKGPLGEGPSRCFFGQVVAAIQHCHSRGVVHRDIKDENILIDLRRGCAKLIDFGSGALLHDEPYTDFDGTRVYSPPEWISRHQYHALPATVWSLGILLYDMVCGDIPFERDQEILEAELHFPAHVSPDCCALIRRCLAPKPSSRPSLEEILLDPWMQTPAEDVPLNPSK
Briefly: PIM2 in-vitro mobility shift assay (Caliper LC3000, FL-Ahx-Bad phosphorylation). The assay is classed as biochemical. The conditions noted are these: 1.5 h; percent inhibition at 0.3 uM compound; read-out: PIM2 % I at 0.3 uM.
Text: PIM2 In-Vitro Mobility Shift Assay
One may determine the activity of purified human His-PIM2 [23-299] enzyme in-vitro using a mobility shift assay on a Caliper LC3000 reader (Caliper, Mass.), which measures fluorescence of a phosphorylated and unphosphorylated FL-Ahx-Bad (FITC-(AHX)RSRHSSYPAGT-COOH, Primm 200606-00289, Primm Biotech, Mass.) and calculates a ratiometric value to determine percent turnover. One may express PIM2 (produced at AstraZeneca, R&D Boston) in E. coli cells with a typical yield of >90% purity.
as §1, with “5 uL” for “5 µl”, “and 12” for “and 240”, “5 uL” for “5 ul”, “and incubates” for “and incubated”, “90 minutes. One” for “90 minutes and”, “stops” for “stops the”

Counter-ions that a name gives are not always drawn.

T1 sequence (P11309 2-313): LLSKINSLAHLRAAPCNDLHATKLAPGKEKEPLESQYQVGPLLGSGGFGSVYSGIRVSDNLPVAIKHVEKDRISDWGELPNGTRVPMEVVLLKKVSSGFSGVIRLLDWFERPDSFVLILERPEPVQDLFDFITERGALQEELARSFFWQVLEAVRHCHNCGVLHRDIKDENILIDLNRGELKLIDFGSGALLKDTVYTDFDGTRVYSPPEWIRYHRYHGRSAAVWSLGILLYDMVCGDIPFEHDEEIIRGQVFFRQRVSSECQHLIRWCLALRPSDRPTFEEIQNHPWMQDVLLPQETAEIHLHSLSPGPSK

With `N[C@H]1CN(c2c(Cl)cccc2/C=C2\SC(=O)NC2=O)CC[C@@H]1O` (racemic) [Example 122M, (±)-(Z)-5-(2,3-amino-4-hydroxypiperidin-1-yl)-3-chlorobenzylidene)thiazolidine-2,4-dione hydrochloride], the inhibition at 0.3 µM in assay [1] and in assay [2] was greater than 95% each time.

As for `O=C1NC(=O)C(=Cc2c[nH]c3ccccc23)S1` (stereo in doubt) [Example 67, (Z)-5-((1H-indol-3-yl)methylene)thiazolidine-2,4-dione], the inhibition at 0.3 µM in assay [2] is less than 5%.

With `N[C@H]1CCCN(c2c(Cl)cc(C(F)(F)F)cc2/C=C2\SC(=O)NC2=O)C1` [Example 1, (S,Z)-5-(2-(3-aminopiperidin-1-yl)-3-chloro-5-(trifluoromethyl)benzylidene)thiazolidine-2,4-dione trifluoroacetate], the inhibition at 0.3 µM was greater than 95% in assay [1] and 77.7% in assay [2]. In the case of `N[C@@H]1CCCN(c2c(Cl)cc(C(F)(F)F)cc2/C=C2\SC(=O)NC2=O)C1` [Example 2], the inhibition at 0.3 µM in assay [1] and in assay [2] was greater than 95% in each case.

In the case of `NC1CCN(c2c(Cl)cc(C(F)(F)F)cc2/C=C2\SC(=O)NC2=O)CC1` [Example 3], the inhibition at 0.3 µM in assay [1] is greater than 95%; in assay [2], 58%. In the same order, the values of `NCC1CCCN(c2c(Cl)cc(C(F)(F)F)cc2/C=C2\SC(=O)NC2=O)C1` (stereo not drawn) [Example 4] are greater than 95% and 79.6%. In the same order, the values of `O=C1NC(=O)/C(=C/c2cc(C(F)(F)F)cc(Cl)c2N2CCCNCC2)S1` [Example 5A] are greater than 95% and 79.9%. Consider `N[C@H]1CCN(c2c(Cl)cc(C(F)(F)F)cc2/C=C2\SC(=O)NC2=O)C1` [Example 5B], for which the inhibition at 0.3 µM in assay [1] and in assay [2] was greater than 95% in each case. As for `O=C1NC(=O)/C(=C/c2cc(C(F)(F)F)cc(Cl)c2N2CCN(C3CCCC3)CC2)S1` [Example 6, (Z)-5-(3-chloro-2-(4-cyclopentylpiperazin-1-yl)-5 (trifluoromethyl)benzylidene)thiazolidine-2,4-dione hydrochloride], the values for the inhibition at 0.3 µM in assay [1] and in assay [2] were 79.4% and 9.5%, respectively. `O=C1NC(=O)/C(=C/c2cc(C(F)(F)F)cc(Cl)c2N2CCN(c3ccc(F)cc3)CC2)S1` [Example 7]: the results for the inhibition at 0.3 µM in assay [1] and in assay [2] were 5.4% and less than 5%, respectively. For `O=C1NC(=O)/C(=C/c2cc(C(F)(F)F)cc(Cl)c2N2CCN(Cc3ccc4c(c3)OCO4)CC2)S1` [Example 8], in that order: 16.3% and less than 5%. In the same order, the values of `Cc1noc(C2CCN(c3c(Cl)cc(C(F)(F)F)cc3/C=C3\SC(=O)NC3=O)CC2)n1` [Example 9] are 6.9% and less than 5%. In the case of `O=C1NC(=O)/C(=C/c2cc(C(F)(F)F)cc(Cl)c2N2CCC(N3CCCC3)CC2)S1` [Example 10], the inhibition at 0.3 µM in assay [1] is greater than 95%; in assay [2], 50.1%. Turning to `CC(C)N1CCN(c2c(Cl)cc(C(F)(F)F)cc2/C=C2\SC(=O)NC2=O)CC1` [Example 11], the inhibition at 0.3 µM in assay [1] was found to be 89.4%; in assay [2] it was 17.9%. In the same order, the values of `CC(C)CN1CCN(c2c(Cl)cc(C(F)(F)F)cc2/C=C2\SC(=O)NC2=O)CC1` [Example 12] are 80.2% and less than 5%. In the case of `O=C1NC(=O)/C(=C/c2cc(C(F)(F)F)cc(Cl)c2N2CCC(CCO)CC2)S1` [Example 13], the inhibition at 0.3 µM in assay [1] and in assay [2] was less than 5% each time. As to `CN(C)[C@H]1CCN(c2c(Cl)cc(C(F)(F)F)cc2/C=C2\SC(=O)NC2=O)C1` [Example 14], the results for the inhibition at 0.3 µM in assay [1] and in assay [2] were greater than 95% and 69.9%, respectively. On to `O=C1NC(=O)/C(=C/c2cc(C(F)(F)F)cc(Cl)c2N2CCN(c3ccc(Cl)cc3F)CC2)S1` [Example 15], for which the inhibition at 0.3 µM in assay [1] was 12.9%; in assay [2] it was less than 5%. `Cc1noc(C2CCCN(c3c(Cl)cc(C(F)(F)F)cc3/C=C3\SC(=O)NC3=O)C2)n1` (stereo not drawn) [Example 16]: the inhibition at 0.3 µM was 13.9% in assay [1] and less than 5% in assay [2]. In the same order, the values of `O=C1NC(=O)/C(=C/c2cc(C(F)(F)F)cc(Cl)c2N2CCN(Cc3ccncc3)CC2)S1` [Example 17] are 29.8% and less than 5%. With `O=C1NC(=O)/C(=C/c2cc(C(F)(F)F)cc(Cl)c2N2CCN(Cc3ccccc3Cl)CC2)S1` [Example 18], the inhibition at 0.3 µM in assay [1] and in assay [2] was less than 5% each time. Take `CN1CCC(N2CCN(c3c(Cl)cc(C(F)(F)F)cc3/C=C3\SC(=O)NC3=O)CC2)CC1` [Example 19]: the inhibition at 0.3 µM in assay [1] was greater than 95%; in assay [2], 38.3%. For `O=C1NC(=O)/C(=C/c2cc(C(F)(F)F)cc(Cl)c2N2CCN(CCN3CCOCC3)CC2)S1` [Example 20], the values for the inhibition at 0.3 µM in assay [1] and in assay [2] were 86.5% and 19.1%, respectively. Turning to `O=C1NC(=O)/C(=C/c2cc(C(F)(F)F)cc(Cl)c2N2CCN(CC3CC3)CC2)S1` [Example 21], the inhibition at 0.3 µM in assay [1] was found to be 82.9%; in assay [2], 15.8%. In the same order, the values of `O=C1NC(=O)/C(=C/c2cc(C(F)(F)F)cc(Cl)c2N2CCC(N3CCOCC3)CC2)S1` [Example 22] are 81.9% and 8.5%. As to `O=C1NC(=O)/C(=C/c2cc(C(F)(F)F)cc(Cl)c2N2CCN(CCCO)CC2)S1` [Example 23], the inhibition at 0.3 µM in assay [1] is 87.6%; in assay [2], 19.7%. For `CN(C)C1CCN(c2c(Cl)cc(C(F)(F)F)cc2/C=C2\SC(=O)NC2=O)CC1` [Example 24], in that order: greater than 95% and 44.3%. For `CN(C)CCCN(C)c1c(Cl)cc(C(F)(F)F)cc1/C=C1\SC(=O)NC1=O` [Example 25], in that order: greater than 95% and 68.4%. For the molecule `O=C1NC(=O)/C(=C/c2cc(C(F)(F)F)cc(Cl)c2N2CCCN(CCO)CC2)S1` [Example 26], the values for the inhibition at 0.3 µM in assay [1] and in assay [2] were greater than 95% and 49.6%, respectively. In the same order, the values of `CCCCN1CCCN(c2c(Cl)cc(C(F)(F)F)cc2/C=C2\SC(=O)NC2=O)CC1` [Example 27] are 90.8% and 25.1%.

With `O=C1NC(=O)/C(=C/c2cc(C(F)(F)F)cc(Cl)c2N2CCOCC2)S1` [Example 29], the inhibition at 0.3 µM in assay [1] was 92.8%. As to `O=C1NC(=O)/C(=C/c2cnc3[nH]ccc3c2)S1` [Example 80, (5Z)-5-(1H-pyrrolo[2,3-b]pyridin-5-ylmethylene)-1,3-thiazolidine-2,4-dione], the inhibition at 0.3 µM in assay [1] is less than 5%. Same read-out and setting: for `CN(C)CCCOc1ccccc1/C=C1\SC(=O)NC1=O` [Example 81, (5Z)-5-{2-[3-(dimethylamino)propoxy]benzylidene}-1,3-thiazolidine-2,4-dione] the value was less than 5%; for `O=C1NC(=O)/C(=C/c2cccc(N3CCOCC3)c2)S1` [Example 83, (5Z)-5-(3-morpholin-4-ylbenzylidene)-1,3-thiazolidine-2,4-dione trifluoroacetate], 34%.

For the origin of these results see US8901307B2, “Chemical compounds 251” (AstraZeneca AB, priority 2008, dated 2014).
